Measurements: patent US20070265335A1, “POLYMORPHS OF 5-CYCLOPROPYL-2-(4-FLUOROPHENYL)-6-[(2-HYDROXYETHYL)(METHYLSUFONYL)AMINO]-N-METHYL-1-BENZOFURAN-3-CARBOXAMIDE AND METHODS OF MAKING THE SAME” (WYETH, priority 2005, published 2007)

Tests used:
hepatitis C virus = conditions: as disclosed in U.S. Patent Application Publication No. 2004-0162318; cited from earlier work
[1] = thermodynamic stability of the crystalline form; type: physicochemical; conditions: as indicated by its high melting point of about 175° C.
Source text: (§1) The first embodiment of the present invention is directed to a substantially pure polymorphic form A of 5-cyclopropyl-2-(4-fluorophenyl)-6-[(2-hydroxyethyl)(methylsulfonyl)amino]-N-methyl-1-benzofuran-3-carboxamide. The terms “polymorphic form”, “crystal modification”, “polymorph”, and “crystalline form” are used interchangeably herein. As used herein, the terms “isolated” and/or “substantially pure” mean more than 50% of the crystalline 5-cyclopropyl-2-(4-fluorophenyl)-6-[(2-hydroxyethyl)(methylsulfonyl)amino]-N-methyl-1-benzofuran-3-carboxamide or salt thereof is present in the form described herein and preferably at least 70%, more preferably at least 80%, and most preferably at least 90% of the crystalline form described herein is present. […] The peaks shown therein include: 8.4°, 9.0°, 9.8°, 10.1°, 12.6°, 12.9°, 13.2°, 13.4°, 15.9°, 16.4°, 16.8°, 17.4°, 17.9°, 18.4°, 18.5°, 19.0°, 19.2°, 19.7°, 19.8°, 20.0°, 20.2°, 20.5°, 21.0°, 21.7°, 22.2°, 22.6°, 23.6°, 24.0°, 24.5°, 24.7°, 24.9°, 25.3°, 25.9°, 26.0°, 26.5°, 26.9°, 27.3°, 27.6°, 28.1°, 28.7°, […], 30.0°, 30.7°, 31.0°, 31.9°, 32.1°, 32.5°, 33.6°, 34.4°, 34.8°, 35.1°, 35.6°, 36.7°, 36.9°, 37.5°, 38.4°, 38.8°, 39.2° and 39.6° (2θ degrees); one of ordinary skill in the art will readily understand that an about 0.1° to about 0.2° variation for peak positions is typical. […]

settling from suspension = type: physicochemical
Source text: as §1

[2] = hygroscopicity on exposure to air; type: physicochemical; conditions: exposed to air for a period of about 1 week
Source text: as §1

| Compound | inhibition of the hepatitis C virus (hepatitis C virus) | thermodynamic stability of polymorph [1] | settling from suspension (settling from suspension) | hygroscopicity [2] |
| --- | --- | --- | --- | --- |
| CNC(=O)c1c(-c2ccc(F)cc2)oc2cc(N(CCO)S(C)(=O)=O)c(C3CC3)cc12 [5-cyclopropyl-2-(4-fluorophenyl)-6-[(2-hydroxyethyl)(methylsulfonyl)amino]-N-methyl-1-benzofuran-3-carboxamide] | potent inhibitor |  |  |  |
| CNC(=O)c1c(-c2ccc(F)cc2)oc2cc(N(CCO)S(C)(=O)=O)c(C3CC3)cc12 [form A, 5-cyclopropyl-2-(4-fluorophenyl)-6-[(2-hydroxyethyl)(methylsulfonyl)amino]-N-methyl-1-benzofuran-3-carboxamide] |  | thermodynamically favored stable form | tends to settle quickly from suspension | non-hygroscopic |
| CNC(=O)c1c(-c2ccc(F)cc2)oc2cc(N(CCO)S(C)(=O)=O)c(C3CC3)cc12 [form B, 5-cyclopropyl-2-(4-fluorophenyl)-6-[(2-hydroxyethyl)(methylsulfonyl)amino]-N-methyl-1-benzofuran-3-carboxamide] |  |  | tends not to settle quickly from suspension |  |
